Measured values published in US10118943B2, “Compounds and methods for inhibiting cell death” (Ramot at Tel-Aviv University Ltd., priority 2012, dated 2018).
Entries after “also recorded” stand apart in the source; their conditions may differ.

Key:
[1] = molecular target: T1, full-length human EB3 recombinant protein (Homo sapiens, UniProt Q9UPY8); assay: Sulfolink coupling gel-NAP affinity chromatography with recombinant EB3, western analysis; type: binding; conditions: 2 mg soluble peptide incubated with recombinant EB3 and column beads
T1 construct: Full-length human EB3 was subcloned into pEX-N-His vector; 6xHis (N, cleaved yes); made in house; host or cells: E. coli BL21(DE3)
T1 sequence (Q9UPY8 whole entry): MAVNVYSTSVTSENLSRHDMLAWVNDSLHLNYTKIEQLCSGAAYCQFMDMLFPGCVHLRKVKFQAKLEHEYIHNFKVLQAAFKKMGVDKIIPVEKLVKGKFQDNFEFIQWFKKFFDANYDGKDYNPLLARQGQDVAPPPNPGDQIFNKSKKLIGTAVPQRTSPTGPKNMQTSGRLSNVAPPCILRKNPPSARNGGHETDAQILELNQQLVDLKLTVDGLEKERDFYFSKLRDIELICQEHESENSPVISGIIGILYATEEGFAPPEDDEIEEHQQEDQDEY
Description: Column load, flow through, wash and elution fractions were further analyzed by polyacrylamide gel electrophoresis, followed by western analysis with EB3 antibodies. […] Column chromatography, elution and western blots were performed as above. The extract fractions (flow, wash and elution) were separated by electrophoresis followed by protein detection (FIG. 6).

ADNP+/− mice = assay: Object recognition test in ADNP-deficient mice; type: in vivo, mouse; conditions: intranasal, twice a day, 1 month, ADNP+/− male mice
From the text: All procedures involving animals were approved by the Animal Care and Use Committee of Tel Aviv University and the National Institutes of Health (Bethesda, Md.). ADNP heterozygous mice, a model for cognitive impairments (Vulih-Shultzman et al., 2007, J. Pharmacol. Exp. Ther. 323:438-449), were housed in a 12-h light/12-h dark cycle facility, and free access to rodent chow and water was available.
SKIP (SEQ ID NO:6) treatment included daily intranasal administrations over a 1 month period to 5-month-old male mice (2 μg/5 μl/mouse/day). For intranasal administration, the peptide was dissolved in a vehicle solution, in which each milliliter included 7.5 mg of NaCl, 1.7 mg of citric acid monohydrate, 3 mg of disodium phosphate dihydrate, and 0.2 mg of benzalkonium chloride solution (50%). SKIP (SEQ ID NO:6) or vehicle solution (DD) was administered to mice hand-held in a semisupine position with nostrils facing the investigator. A pipette tip was used to administer 5 μl/each nostril. The mouse was handheld until the solution was totally absorbed (˜10 s). Nasal SKIP (SEQ ID NO:6) application was performed daily, twice a day, for 1 month (5 days a week). After 1 month, SKIP (SEQ ID NO:6) was applied 2 h before the behavioral tests (described below).
The test includes 2 consecutive days of habituation (five minutes per day) and the experimental day which consists of the three phases. The test was conducted two hours after the daily intranasal SKIP (SEQ ID NO:6). During the first phase (Phase 1, habituation phase), the open field apparatus (arena of 50×50 cm) contained two identical objects (samples) and a mouse was placed in the apparatus facing the wall and allowed to freely explore the objects. At the end of the 5-min session of Phase 1, the mouse was put back into its home cage for 3 hours. […] The time spent sniffing/touching each object was measured. The data was analyzed using the following formula: D1=b−a, when ‘a’ designated the time of exploration of the familiar object and ‘b’ designated the time of exploration of the novel object. […]

primary cortical neurons = assay: PSD-95 density in primary cortical neuron culture; type: cell-based, rat; conditions: neurons treated for 2 hrs
Description: Methods: 1. Primary cultures of neurons were prepared as follows. Newborn rats were sacrificed on postnatal day 1. Cerebral cortex tissue was then dissected and dissociated individually from each pup with the Papain Dissociation System (PDS; Worthington Biochemical Corporation) according to the manufacturer's instructions. 2. Cells were fixed with ice cold methanol, blocked with 2% bovine serum albumin (BSA) and 5% normal goat serum in Tris buffered saline containing tween 20 (TBS-T; 20 mM Tris pH 7.5, 136.8 mM NaCl, and 0.05% v/v Tween 20), and incubated with primary antibody followed by the appropriate secondary antibody. 3. Primary antibodies that were used include: monoclonal anti PSD-95 (ab-2723, Abcam), monoclonal anti Tyr-α-tubulin antibody (YL1/2) (VMA1864, Abcys, Paris, France), polyclonal anti Glu-α-tubulin antibody (L4) (AbC0101, Abcys, Paris, France), DyLight 488-labeled secondary goat anti-mouse IgG, DyLight 633-labeled secondary goat anti-rabbit IgG (KPL, Gaithersburg, Md., USA), Cy3-conjugated secondary goat anti-Rat IgG, (Jackson ImmunoResearch). 4. Images were collected with a Leica SP5 confocal laser scanning microscope (Mannheim, Germany) with 63× oil immersion optics, laser lines at 488, 561, 633 nm. Identical confocal laser scanning microscopy (CLSM) parameters (e.g., scanning line, laser light, gain, and offset etc.) were used for control and NAP treated cells.
For instance, a PSD-95 expression assay using primary cortical neuron cultures established from suitable animals may be performed to confirm a compound's activity in promoting cell plasticity. More specifically, primary cultures of neurons are prepared by first taking cerebral cortex tissue from newborn rats on postnatal day 1. The cerebral cortex tissue is then dissected and dissociated individually from each animal. Cells are fixed with ice cold methanol, blocked (e.g., with bovine serum albumin (BSA) and normal goat serum), and incubated with primary antibody (e.g., monoclonal antibody against PSD-95), optionally followed by the appropriate secondary antibody for imaging purposes. Images of primary neuronal cultures are taken and compared between cultures with or without being exposed to a test compound. An increased PSD-95 expression is indicative of the test compound being capable of promoting or protecting cell plasticity, especially neuronal plasticity.
Cerebral cortex tissue from newborn rats was dissected and dissociated individually from each pup with the Papain Dissociation System (PDS), (Worthington Biochemical Corporation) according to the manufacturer's instructions. Cortical neurons were maintained in Neurobasal medium (NB), (Gibco) supplemented with NeuroCult B27-SM1 ([…]), 1% Glutamax (Gibco), and grown on poly-D-lysine-coated cell culture glass cover slips.
Images were collected with a Leica SP5 confocal laser scanning microscope (Mannheim, Germany) with 63× oil immersion optics, laser lines at 488, 561, 633 nm or with LSM 510 META (Zeiss, Jena, Germany) confocal laser scanning microscope with 63× oil immersion optics, laser lines at 488, 568, 633 nm. When comparing fluorescence intensities, identical CLSM parameters (e.g., scanning line, laser light, gain, and offset etc.) were used. All of the fluorescent signals acquired were above the autofluorescent background as measured from a control slide stained with secondary antibody without a primary antibody. To compare the relative levels of protein expression, the average integrated density (AID) image analysis procedure was used for cell immunostains. In brief, integrated density is defined by the sum of the values of the pixels in the selected region of interest (ROI). This is equivalent to the product of Area and Mean Gray Value. AID for the positive stained area was determined by measuring the fluorescent intensity of the ROI, which is above the positive cut-off intensity. […]

NAPVSKIPQ (synthetic novel peptide core sequence SKIP derived from hybrid microtubule end-binding protein 3 (EB3)- binding microtubule plus-end tracking proteins (+TIPs) and activity-dependent neurotrophic factor (ADNF) active core site (NAP))
competition for EB3 binding to column-bound NAP [1]: no binding of EB3 to the column bound NAP | object recognition, Phase 2 short retention (discrimination index D1) (ADNP+/− mice): improved the memory | derivative peptides effect on PSD-95 density vs vehicle controls (FIG. 10c) (primary cortical neurons): paralleled to NAPVSIPQ activity; also recorded: significantly increased
